Data reported in patent US20250163055A1, “POLYMORPH OF JAK TYROSINE KINASE INHIBITOR AND PREPARATION METHOD THEREFOR” (Prime Gene Therapeutics Co., Ltd., priority 2022, published 2025).
“Also recorded” adds a separate entry of the source.

Tests used:
[1] = Long-term (24-months) stability of crystal forms; assay type: physicochemical; settings: for stability of the crystal form (result in words): long-term stability investigation, summary; for Appearance / Content / Crystal Form / Loss on Drying / Related Substances, Most Unknown Impurity / Related Substances, Total Impurities: long-term stability
Source text: The crystals prepared in examples 1, 3 and 6 were selected, and the stability of the crystal forms 1, IIa and IIb was investigated in accordance with the stability research guidelines issued by the National Medical Product Administration. The crystals were packed in pharmaceutical low-density polyethylene bags, and 24 months long-term stability was investigated.

[2] = Transdermal test of gel preparations (transdermal rate); assay type: in vitro ADME; settings: gel preparation; receiving medium 5.0% Tween 80, pH 5.5 phosphate
Source text: Take the crystal obtained in Examples 1 or 6 and prepare it into gel preparation (the process for preparing the gel preparation can be: after stirring PEG400, propylene glycol, glycerin, ethanol and the crystal of Example 1 or 6, mix with EDTA aqueous solution, add in the swelled carbomer aqueous solution, adjust pH to be 6 with 10% triethanolamine solution, to obtain the gel). Measure respective transdermal rate (receiving medium 5.0% Tween 80, pH 5.5 phosphate).

[3] = Pharmacokinetic experiment in male SD rats (oral, intravenous, transdermal); assay type: in vivo, rat; settings: oral group (gavage)
Method: (§1) The solid powders of Examples 1 and 6, and the hydrogel preparations thereof were taken, and the PK values of rats administered by oral gavage and transdermal application were respectively determined. Male SD rats were divided into groups, 3 rats in each group, and were administered the compounds obtained in Examples 1 and 6 by oral gavage (oral group). administered Example 1 intravenously (intravenous group), and administered the gel preparations prepared from the compounds of Examples 1 and 6 topically to the skin (transdermal group). Animals were fasted overnight before the experiment, and the fasting time ranged from 10 hours before administration to 4 hours after administration. Blood was collected at 0.25, 0.5, 1, 2, 4, 6, 8 and 24 hours after administration in oral group and transdermal group, and at 0.083, 0.25, 0.5, 1, 2, 4, 6, 8 and 24 hours after administration in intravenous group. After being anesthetized with isoflurane using a small animal anesthesia machine, 0.3 mL of whole blood was collected through the fundus venous plexus and placed in a heparin anticoagulant tube. The blood samples were centrifuged at 4° C. and 4000 rpm for 5 min, and plasma was transferred to a centrifuge tube and placed at −80° C. until analysis. Plasma was extracted by protein precipitation method, and the extract was analyzed by LC/MS/MS. The transdermal group was administered for 24 hours and the skin at the administration site was peeled off after washing off the epidermal drug, and the drug content in the skin was analyzed by LC/MS/MS after homogenization.

[4] = Drug concentration in the skin after topical administration to skin for 24 hours; assay type: in vivo, rat; settings: topical gel
Method: as §1, with “After being anesthetized with isoflurane using a small animal anesthesia machine, 0.3 mL of whole blood was collected through the fundus venous plexus and placed in a heparin anticoagulant tube. The blood samples were centrifuged at 4° C. and 4000 rpm for 5 min, and plasma was transferred to a centrifuge tube and placed at −80° C. until analysis.” left out

[5] = Stability of crystal form III on standing (NMR); assay type: physicochemical
Method: 15 mg of 2-{3-[3-amino-4-(7H-pyrrolo[2,3-d]pyrimidin-4-yl)-1H-pyrazol-1-yl]-1-(isopropylsulfonyl)azetidin-3-yl}acetonitrile was added to 3 mL of dioxane, then heated to 40° C. to dissolve and the obtained solution is clear. After filtration, the solution was volatilized and crystallized at 40° C. to obtain crystal form III.

CC(C)S(=O)(=O)N1CC(CC#N)(n2cc(-c3ncnc4[nH]ccc34)c(N)n2)C1 [Example 6, 2-{3-[3-amino-4-(7H-pyrrolo[2,3-d]pyrimidin-4-yl)-1H-pyrazol-1-yl]-1-(isopropylsulfonyl)azetidin-3-yl}acetonitrile crystal form IIb]
stability of the crystal form (result in words) [1]: better chemical stability; also recorded: good stability
Appearance ([1]; 0 month): Off-white
Content ([1]; 0 month): 99.7%
Crystal Form ([1]; 0 month): IIb
Loss on Drying ([1]; 0 month): 0.36%
Related Substances, Most Unknown Impurity ([1]; 0 month): 0.07%
Related Substances, Total Impurities ([1]; 0 month): 0.38%
Appearance ([1]; 3 months): Off-white
Content ([1]; 3 months): 99.7%
Crystal Form ([1]; 3 months): IIb
Loss on Drying ([1]; 3 months): 0.36%
Related Substances, Most Unknown Impurity ([1]; 3 months): 0.08%
Related Substances, Total Impurities ([1]; 3 months): 0.38%
Appearance ([1]; 6 months): Off-white
Content ([1]; 6 months): 99.6%
Crystal Form ([1]; 6 months): IIb
Loss on Drying ([1]; 6 months): 0.39%
Related Substances, Most Unknown Impurity ([1]; 6 months): 0.08%
Related Substances, Total Impurities ([1]; 6 months): 0.37%
Appearance ([1]; 9 months): Off-white
Content ([1]; 9 months): 99.5%
Crystal Form ([1]; 9 months): IIb
Loss on Drying ([1]; 9 months): 0.34%
Related Substances, Most Unknown Impurity ([1]; 9 months): 0.08%
Related Substances, Total Impurities ([1]; 9 months): 0.38%
Appearance ([1]; 12 months): Off-white
Content ([1]; 12 months): 99.6%
Crystal Form ([1]; 12 months): IIb
Loss on Drying ([1]; 12 months): 0.30%
Related Substances, Most Unknown Impurity ([1]; 12 months): 0.07%
Related Substances, Total Impurities ([1]; 12 months): 0.37%
Appearance ([1]; 18 months): Off-white
Content ([1]; 18 months): 99.6%
Crystal Form ([1]; 18 months): IIb
Loss on Drying ([1]; 18 months): 0.31%
Related Substances, Most Unknown Impurity ([1]; 18 months): 0.07%
Related Substances, Total Impurities ([1]; 18 months): 0.39%
Appearance ([1]; 24 months): Off-white
Content ([1]; 24 months): 99.7%
Crystal Form ([1]; 24 months): IIb
Loss on Drying ([1]; 24 months): 0.32%
Related Substances, Most Unknown Impurity ([1]; 24 months): 0.08%
Related Substances, Total Impurities ([1]; 24 months): 0.39%
transdermal performance / transdermal absorption (result in words) [2]: inferior to crystal form I in transdermal absorption
AUC(0-inf) [3]: 537 ng·h/mL
Cmax [3]: 114 ng/mL
F [3]: 22%
T1/2 [3]: 3.40 h
Tmax [3]: 3.17 h
drug concentration retained in animal skin relative to crystal form I [4]: up to 7 times

CC(C)S(=O)(=O)N1CC(CC#N)(n2cc(-c3ncnc4[nH]ccc34)c(N)n2)C1 [Example 3, 2-{3-[3-amino-4-(7H-pyrrolo[2,3-d]pyrimidin-4-yl)-1H-pyrazol-1-yl]-1-(isopropylsulfonyl)azetidin-3-yl}acetonitrile crystal form IIa]
stability of the crystal form (result in words) [1]: gradually absorbed water during standing and was transformed into crystal form IIb
Appearance ([1]; 0 month): Off-white powder
Content ([1]; 0 month): 99.8%
Crystal Form ([1]; 0 month): IIa
Loss on Drying ([1]; 0 month): 0.06%
Related Substances, Most Unknown Impurity ([1]; 0 month): 0.06%
Related Substances, Total Impurities ([1]; 0 month): 0.28%
Appearance ([1]; 3 months): Off-white powder
Content ([1]; 3 months): 97.6%
Crystal Form ([1]; 3 months): IIb
Loss on Drying ([1]; 3 months): 0.18%
Related Substances, Most Unknown Impurity ([1]; 3 months): 0.08%
Related Substances, Total Impurities ([1]; 3 months): 0.28%
Appearance ([1]; 6 months): Off-white powder
Content ([1]; 6 months): 97.8%
Crystal Form ([1]; 6 months): IIb
Loss on Drying ([1]; 6 months): 0.19%
Related Substances, Most Unknown Impurity ([1]; 6 months): 0.11%
Related Substances, Total Impurities ([1]; 6 months): 0.27%
Appearance ([1]; 9 months): Off-white powder
Content ([1]; 9 months): 97.9%
Crystal Form ([1]; 9 months): IIb
Loss on Drying ([1]; 9 months): 0.24%
Related Substances, Most Unknown Impurity ([1]; 9 months): 0.06%
Related Substances, Total Impurities ([1]; 9 months): 0.24%
Appearance ([1]; 12 months): Off-white powder
Content ([1]; 12 months): 97.8%
Crystal Form ([1]; 12 months): IIb
Loss on Drying ([1]; 12 months): 0.20%
Related Substances, Most Unknown Impurity ([1]; 12 months): 0.09%
Related Substances, Total Impurities ([1]; 12 months): 0.22%
Appearance ([1]; 18 months): Off-white powder
Content ([1]; 18 months): 98.0%
Crystal Form ([1]; 18 months): IIb
Loss on Drying ([1]; 18 months): 0.16%
Related Substances, Most Unknown Impurity ([1]; 18 months): 0.07%
Related Substances, Total Impurities ([1]; 18 months): 0.26%
Appearance ([1]; 24 months): Off-white powder
Content ([1]; 24 months): 97.8%
Crystal Form ([1]; 24 months): IIb
Loss on Drying ([1]; 24 months): 0.25%
Related Substances, Most Unknown Impurity ([1]; 24 months): 0.08%
Related Substances, Total Impurities ([1]; 24 months): 0.29%

CC(C)S(=O)(=O)N1CC(CC#N)(n2cc(-c3ncnc4[nH]ccc34)c(N)n2)C1 [Example 8, 2-{3-[3-amino-4-(7H-pyrrolo[2,3-d]pyrimidin-4-yl)-1H-pyrazol-1-yl]-1-(isopropylsulfonyl)azetidin-3-yl}acetonitrile crystal form III]
crystallinity and stability (result in words) [5]: poor crystallinity and stability
impurities generated after standing (nuclear magnetic resonance) ([5]; after standing): about 10%
